From ChEMBL document CHEMBL1149709, “Synthesis and SAR of 2-aryl pyrido[2,3-d]pyrimidines as potent mGlu5 receptor antagonists” (Bioorg Med Chem Lett, 2007)

biological target: Metabotropic glutamate receptor 5 (Rattus norvegicus, UniProt P31424); assay: Antagonistic activity at rat mGluR5 expressed in CHO cells assessed as inhibition of quisqualate stimulated calcium mobilization by FLIPR technology; format: functional, cell-based; settings: not given
Sequence (P31424 whole entry): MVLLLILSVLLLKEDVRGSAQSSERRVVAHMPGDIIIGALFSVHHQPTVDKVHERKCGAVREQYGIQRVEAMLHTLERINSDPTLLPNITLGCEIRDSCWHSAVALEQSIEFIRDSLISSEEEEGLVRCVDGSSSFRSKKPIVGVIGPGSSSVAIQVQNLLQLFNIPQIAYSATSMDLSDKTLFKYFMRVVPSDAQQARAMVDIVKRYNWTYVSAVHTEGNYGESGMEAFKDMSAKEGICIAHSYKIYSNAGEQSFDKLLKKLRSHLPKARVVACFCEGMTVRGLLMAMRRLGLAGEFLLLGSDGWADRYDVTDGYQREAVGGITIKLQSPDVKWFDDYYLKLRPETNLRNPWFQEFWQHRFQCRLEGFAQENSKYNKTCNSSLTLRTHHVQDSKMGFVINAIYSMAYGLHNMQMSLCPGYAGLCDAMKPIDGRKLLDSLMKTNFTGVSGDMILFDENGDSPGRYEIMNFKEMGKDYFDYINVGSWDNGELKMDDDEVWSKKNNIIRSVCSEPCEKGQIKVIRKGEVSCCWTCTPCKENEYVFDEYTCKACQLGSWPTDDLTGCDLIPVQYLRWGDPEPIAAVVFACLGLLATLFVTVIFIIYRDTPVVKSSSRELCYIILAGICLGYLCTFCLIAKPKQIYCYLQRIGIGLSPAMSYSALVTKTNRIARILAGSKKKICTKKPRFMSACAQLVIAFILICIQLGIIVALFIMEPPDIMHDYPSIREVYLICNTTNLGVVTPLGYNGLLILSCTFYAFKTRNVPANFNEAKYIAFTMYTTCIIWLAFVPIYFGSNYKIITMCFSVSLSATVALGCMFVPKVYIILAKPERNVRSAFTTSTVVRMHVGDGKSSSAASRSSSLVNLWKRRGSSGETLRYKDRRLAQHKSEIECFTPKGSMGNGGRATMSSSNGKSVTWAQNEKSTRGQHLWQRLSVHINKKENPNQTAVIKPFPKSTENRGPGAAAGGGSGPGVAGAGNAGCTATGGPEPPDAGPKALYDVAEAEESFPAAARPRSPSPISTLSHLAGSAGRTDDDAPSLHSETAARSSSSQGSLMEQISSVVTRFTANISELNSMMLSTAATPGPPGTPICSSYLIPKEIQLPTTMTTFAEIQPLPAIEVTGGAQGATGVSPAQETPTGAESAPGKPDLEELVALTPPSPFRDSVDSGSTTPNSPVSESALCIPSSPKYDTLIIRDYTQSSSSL

Row | Compound | IC50
1 | COc1cccc(-c2ncc3ccc(C)nc3n2)c1 | 1500 nM
2 | Cc1ccc2cnc(-c3cccc(C#N)c3)nc2n1 | 240 nM
3 | Cc1ccc2cnc(-c3cccc(S(C)(=O)=O)c3)nc2n1 | > 30000 nM
4 | COc1ccccc1-c1ncc2ccc(C)nc2n1 | > 30000 nM
5 | COC(=O)c1ccc(-c2ncc3ccc(C)nc3n2)cc1 | > 30000 nM
6 | Cc1ccc2cnc(-c3ccc(Br)cc3)nc2n1 | > 30000 nM
7 | COc1cc(-c2ncc3ccc(C)nc3n2)cc(OC)c1OC | > 30000 nM
8 | Brc1cccc(-c2ncc3cccnc3n2)c1 | 333 nM
9 | Cc1cc(F)cc(-c2ncc3cccnc3n2)c1 | 321 nM
10 | Cc1ccc2cnc(-c3ccc(C#N)cc3)nc2n1 | > 30000 nM
11 | Cc1ccc2cnc(-c3ccc(Cl)c(Cl)c3)nc2n1 | > 30000 nM
12 | Cc1ccc2cnc(-c3ccc(Cl)cc3Cl)nc2n1 | > 30000 nM
13 | N#Cc1cccc(-c2ncc3cccnc3n2)c1 | > 26100 nM
14 | Clc1cc(Cl)cc(-c2ncc3cccnc3n2)c1 | 228 nM
15 | Cc1ccc2cnc(-c3ccccc3)nc2n1 | 2700 nM
16 | Cc1ccc2cnc(-c3cccc(CN)c3)nc2n1 | > 30000 nM

Stronger by IC50, values ahead:

Row | IC50 | Compound
17 | 53 nM | Cc1cccc(-c2ncc3ccc(C)nc3n2)c1
18 | 4.95 nM | COc1cc(C#N)cc(-c2ncc3cccnc3n2)c1
19 | 0.72 nM | Cc1ccc2cnc(-c3cc(Cl)cc(Cl)c3)nc2n1
20 | 179 nM | COc1cc(OC)cc(-c2ncc3ccc(C)nc3n2)c1
21 | 39.7 nM | Cc1cc(F)cc(-c2ncc3ccc(C)nc3n2)c1
22 | 1.2 nM | COc1cc(C#N)cc(-c2ncc3ccc(C)nc3n2)c1
23 | 38 nM | Cc1ccc2cnc(-c3cccc(Br)c3)nc2n1

system: Rattus norvegicus; assay: Effect on rat monosodium iodoacetate model of osteoarthritis pain assessed as inhibition of change in hind paw weight at 10 mg/kg, po after 2 hrs; format: organism-based; design: dose 10 mg/kg, route oral; settings: in vivo

Row | Activity | Compound
24 | Active | COc1cc(C#N)cc(-c2ncc3ccc(C)nc3n2)c1

system: Rattus norvegicus; assay: Effect on rat monosodium iodoacetate model of osteoarthritis pain assessed as inhibition of change in hind paw weight at 10 mg/kg, po after 4 hrs; format: organism-based; design: dose 10 mg/kg, route oral; settings: in vivo

Row | Activity | Compound
25 | Active | COc1cc(C#N)cc(-c2ncc3ccc(C)nc3n2)c1
